In patent US10660882B2, “Prophylactic or therapeutic agent for giant cell tumors occurring in bone and soft tissue or for chondrosarcoma” (NIPPON CHEMIPHAR CO., LTD., priority 2012, dated 2020):

Assays:
[1] = tested on: GCT cultured cells; assay: Cell proliferation of GCT cultured cells, Cell Counting Kit-8, absorbance at 450 nm; type: cell-based, human; conditions: GCT cultured cells case 1, case 2
Description: (§1) GCT cultured cells (case 1, patient with osteoclastoma in a distal part of the right femur; case 2, patient with osteoclastoma in a distal part of the right femur) were cultured on a 96-well culture plate, zaltoprofen was added to the cells at various concentrations (5, 10, 50, 100, and 200 μM), color development was attained with Cell Counting Kit-8 (CCK-8) (Dojindo) 24 hours thereafter, and absorbance was measured at 450 nm 3 hours thereafter (FIG. 1).
In the same manner as that of Example 1, the GOT cultured cells (case 1, case 2) were cultured, a non-steroidal anti-inflammatory agent (acetaminophen, indomethacin, or diclofenac) or troglitazone was added at various concentrations, and absorbance was measured at 450 nm (FIGS. 12 and 13).
(§2) In the same manner as that of Example 1, the GCT cultured cells (case 1, case 2), the cells derived from giant cell tumor of tendon sheath (GCT of tendon sheath), or the cells derived from pigmented villonodular synovitis (diffuse-type GCT) were cultured, and then pioglitazone, a thiazolidine derivative, was added at various concentrations, and absorbance was measured at 450 nm (FIG. 32).

[2] = tested on: cells derived from giant cell tumor of tendon sheath; assay: Fat cell differentiation of cells derived from giant cell tumor of tendon sheath, lipid stain; type: cell-based, human; conditions: 400 μM, compared with control
Description: (§3) It has been reported that PPARγ is a transcription factor indispensable for fat cell differentiation. Therefore, the GCT cultured cells of the aforementioned case 1 were cultured on chamber cover slide glass, and when they reached confluent, zaltoprofen was added to the cells at various concentrations (10, 50, and 100 μM). From 24 hours thereafter, the cells were cultured in a fat cell differentiation-inducing medium (STREMPRO Adipogenesis Differentiation Kit, Invitrogen) for 7 to 14 days, and differentiation into fat cells was analyzed with HCS LipidTOX Green Neutral Lipid Stain (Invitrogen) (FIGS. 8 and 9).
(§4) As described in Example 3, it has been reported that PPARγ is a transcription factor indispensable for fat cell differentiation. Therefore, zaltoprofen was added at a concentration of 400 μM to the cells derived from giant cell tumor of tendon sheath or the cells derived from pigmented villonodular synovitis, and differentiation into fat cells was analyzed (FIGS. 30 and 31). As a result, it was successfully observed that the positive images obtained with HCS LipidTOX Green Neutral Lipid Stain increased in the zaltoprofen-added cells compared with the control.

[3] = tested on: osteoclastoma (GCT); assay: Fat cell differentiation in operational excision sample of GCT patient administered with zaltoprofen; type: in vivo, human; conditions: 3 tablets per day (80 mg) for about 28 days
Description: (§5) An operational excision sample of a person who had been administered with 3 tablets per day of the zaltoprofen tablets, Soleton Tablet 80 (generic name: zaltoprofen, 80 mg, Nippon Chemiphar) for about 28 days for pain due to the tumor, and then subjected to the operation, and an operational excision sample of a patient with osteoclastoma not administered with zaltoprofen as a control were subjected to staining of PPARγ, and expression of PPARγ was analyzed. Observation was performed with a fluorescence microscope (BZ-9000) of Keyence (FIG. 11).

[4] = tested on: PPARγ; assay: Effect of PPARγ siRNA on GCT cultured cells after addition of drug, CCK-8; type: cell-based, human; conditions: 200 μM; 72 hours; GCT cultured cells case 1, case 2
Description: The cells (case 1, case 2) were cultured on a 96-well culture plate, allowed to react with PPARγ siRNA, negative control siRNA, or only with the transfection reagents (Thermo Scientific DharmaFECT, Thermo Scientific) for 48 hours, and further cultured in a usual culture medium for 48 hours. Then, 200 μM of zaltoprofen or 60 μM of troglitazone was added to the cells, 72 hours thereafter, color development was performed with Cell Counting Kit-8 (CCK-8, Dojindo), and 3 hours thereafter, absorbance was measured at 450 nm (FIGS. 14 and 15).

[5] = tested on: cultured cells of pigmented villonodular synovitis; assay: Tunel assay of cultured cells of pigmented villonodular synovitis; type: cell-based, human; conditions: 400 μM, compared with control
Description: (§6) Further, the aforementioned GCT cultured cells of the case 1 were cultured on chamber cover slide glass, and zaltoprofen was added at different concentrations (100, and 200 μM) 24 hours afterward. Then, 8 hours and 24 hours afterward, the cells were fixed with 4% paraformaldehyde, staining with caspase 3 and Tunel assay were performed, and presence or absence of apoptosis was analyzed. Observation was performed with a fluorescence microscope (BZ-9000) of Keyence, and positive images for each concentration were quantitatively observed (FIGS. 2 to 5). […] Further, in the same manner as that of Example 1, the cultured cells of giant cell tumor of tendon sheath and the cultured cells of pigmented villonodular synovitis were subjected to staining with caspase 3 and Tunel assay, and presence or absence of apoptosis was analyzed (FIGS. 18 to 25). As a result, it was observed that the Tunel-positive ratio and caspase 3-positive ratio increased in the cells added with zaltoprofen at a concentration of 400 μM or troglitazone at a concentration of 2000 μM compared with those observed for the control.

[6] = tested on: PPARγ; assay: PPARγ immunostaining of cells derived from pigmented villonodular synovitis; type: cell-based, human; conditions: 400 μM
[7] = tested on: chondrosarcoma-derived cell line (H-EMC-SS); assay: Cell proliferation of chondrosarcoma-derived cell line, CCK-8; type: cell-based; conditions: various concentrations
[8] = tested on: osteoclastoma (GCT); assay: Tunel assay of operational excision sample of GCT patient administered with zaltoprofen; type: in vivo, human; conditions: 3 tablets per day (80 mg) for about 28 days
Description: (§7) An operational excision sample of a person who had been administered with 3 tablets per day of the zaltoprofen tablets, Soleton Tablet 80 (generic name: zaltoprofen, 80 mg, Nippon Chemiphar) for about 28 days for pain due to the tumor, and then subjected to the operation, and an operational excision sample of a patient with osteoclastoma not administered with zaltoprofen as a control were subjected to caspase 3 staining and Tunel assay, and analyzed for the presence or absence of apoptosis. Observation was performed with a fluorescence microscope (BZ-9000) produced by Keyence (FIG. 10). As a result, almost no Tunel-positive cells and caspase 3-positive cells were observed among the cells derived from the GCT patient not administered with zaltoprofen, whilst Tunel-positive cells and caspase 3-positive cells were observed among the cells derived from the patient administered with zaltoprofen.

[9] = tested on: osteoclastoma; assay: MRI evaluation of patient with recurrence of osteoclastoma in the pelvic part administered with zaltoprofen; type: in vivo, human
Description: (§8) Soleton Tablet 80 (generic name: zaltoprofen, 80 mg, Nippon Chemiphar) was administered to a patient with osteoclastoma, a patient with giant cell tumor of tendon sheath, or a patient with pigmented villonodular synovitis at a dose of 3 tablets per day (administered in morning, at noon, and in evening), and the tumor size was evaluated by MRI every several months.

[10] = tested on: caspase 3; assay: Caspase 3 staining of chondrosarcoma-derived cell line; type: cell-based; conditions: 200 μM zaltoprofen, compared with control
Description: (§9) Further, the aforementioned GCT cultured cells of the case 1 were cultured on chamber cover slide glass, and zaltoprofen was added at different concentrations (100, and 200 μM) 24 hours afterward. Then, 8 hours and 24 hours afterward, the cells were fixed with 4% paraformaldehyde, staining with caspase 3 and Tunel assay were performed, and presence or absence of apoptosis was analyzed. Observation was performed with a fluorescence microscope (BZ-9000) of Keyence, and positive images for each concentration were quantitatively observed (FIGS. 2 to 5).
Further, in the same manner as that of Example 1, the chondrosarcoma-derived cell line was subjected to caspase 3 staining, and presence or absence of apoptosis was analyzed (FIGS. 46 and 47). As a result, it was successfully observed that the caspase 3-positive ratio increased in the cells added with zaltoprofen at a concentration of 200 μM, troglitazone at a concentration of 100 μM, or pioglitazone at a concentration of 200 μM, compared with the control.

[11] = tested on: PPARγ; assay: PPARγ immunostaining of cells derived from giant cell tumor of tendon sheath; type: cell-based, human; conditions: 400 μM
[12] = tested on: GCT cultured cells; assay: Fat cell differentiation of GCT cultured cells, HCS LipidTOX Green Neutral Lipid Stain; type: cell-based, human; conditions: case 1; 10, 50, and 100 μM; fat cell differentiation-inducing medium 7 to 14 days
Description: as §3

[13] = tested on: caspase 3; assay: Caspase 3 staining of operational excision sample of GCT patient administered with zaltoprofen; type: in vivo, human; conditions: 3 tablets per day (80 mg) for about 28 days
Description: as §7

[14] = tested on: PPARγ; assay: PPARγ immunostaining of GCT cultured cells; type: cell-based, human; conditions: case 1; 10, 50, 100, and 200 μM; 24 hours
Description: The GCT cultured cells of the aforementioned case 1 were cultured on chamber cover slide glass, and 24 hours thereafter, zaltoprofen was added at various concentrations (10, 50, 100, and 200 μM). After 24 hours, the cells were fixed with 4% paraformaldehyde, and staining of PPARγ was performed. Observation was performed with a fluorescence microscope (BZ-9000) of Keyence, and positive images for each concentration were quantitatively observed (FIGS. 6 and 7).

[15] = tested on: PPARγ; assay: PPARγ staining of operational excision sample of GCT patient administered with zaltoprofen; type: in vivo, human; conditions: 3 tablets per day (80 mg) for about 28 days
Description: as §5

[16] = tested on: caspase 3; assay: Caspase 3 staining of cultured cells of pigmented villonodular synovitis; type: cell-based, human; conditions: 400 μM, compared with control
Description: as §6

[17] = tested on: GCT cultured cells; assay: Tunel assay of GCT cultured cells; type: cell-based, human; conditions: case 1; 100 and 200 μM; 8 hours and 24 hours
Description: as §9

[18] = tested on: PPARγ; assay: PPARγ immunostaining of chondrosarcoma-derived cell line; type: cell-based; conditions: 200 μM zaltoprofen
[19] = tested on: caspase 3; assay: Caspase 3 staining of cultured cells of giant cell tumor of tendon sheath; type: cell-based, human; conditions: 400 μM, compared with control
Description: as §6

[20] = tested on: cultured cells of pigmented villonodular synovitis; assay: Cell proliferation of cultured cells of pigmented villonodular synovitis, CCK-8; type: cell-based, human; conditions: various concentrations
Description: as §1, §2

[21] = tested on: pigmented villonodular synovitis; assay: MRI and symptom evaluation of patients with recurrence of pigmented villonodular synovitis in the right knee administered with zaltoprofen; type: in vivo, human; conditions: person, 3 tablets per day
Description: as §8

[22] = tested on: cultured cells of giant cell tumor of tendon sheath; assay: Cell proliferation of cultured cells of giant cell tumor of tendon sheath, CCK-8; type: cell-based, human; conditions: various concentrations
Description: as §1, §2

[23] = tested on: cultured cells of giant cell tumor of tendon sheath; assay: Tunel assay of cultured cells of giant cell tumor of tendon sheath; type: cell-based, human; conditions: 400 μM, compared with control
Description: as §6

[24] = tested on: cells derived from pigmented villonodular synovitis; assay: Fat cell differentiation of cells derived from pigmented villonodular synovitis, lipid stain; type: cell-based, human; conditions: 400 μM, compared with control
Description: as §3, §4

[25] = tested on: caspase 3; assay: Caspase 3 staining of GCT cultured cells; type: cell-based, human; conditions: case 1; 100 and 200 μM; 8 hours and 24 hours
Description: as §9

O=C(O)Cc1ccccc1Nc1c(Cl)cccc1Cl [diclofenac] was tested, and the “cell proliferation (absorbance at 450 nm)” value ([1]; various concentrations) was “suppressed in a non-steroidal anti-inflammatory agent concentration-dependent manner”.
For CC(=O)Nc1ccc(O)cc1 [acetaminophen], the “cell proliferation (absorbance at 450 nm)” value ([1]; various concentrations) was “suppressed in a non-steroidal anti-inflammatory agent concentration-dependent manner”.
In the case of COc1ccc2c(c1)c(CC(=O)O)c(C)n2C(=O)c1ccc(Cl)cc1 [indomethacin], the “cell proliferation (absorbance at 450 nm)” value ([1]; various concentrations) is reported as “suppressed in a non-steroidal anti-inflammatory agent concentration-dependent manner”.
CC(C(=O)O)c1ccc2c(c1)CC(=O)c1ccccc1S2 (stereo not drawn) [zaltoprofen] was tested, and the “positive images obtained with HCS LipidTOX Green Neutral Lipid Stain (differentiation into fat cells)” value [2] was “increased”, the fat cell differentiation [3] was “fat cell differentiation was observed” and the “effect of the drug on cell proliferation in the PPARγ siRNA addition group” value [4] was “significantly suppressed”. For the same compound, the Tunel-positive ratio [5] was “increased”, the “expression of PPARγ (PPARγ-positive images)” value [6] was “expression of PPARγ was successfully observed” and the “cell proliferation (absorbance)” value [7] was “suppressed in a troglitazone, pioglitazone, or zaltoprofen concentration-dependent manner”. The Tunel-positive cells [8] was “observed”, the “MRI image of the pelvic part (arrows)” value ([9]; after four months of administration) was “tumor necrosis region” and the “MRI image of the pelvic part (arrows)” value ([9]; after two months of administration) was “tumor necrosis region”. For the same compound, the “caspase 3-positive ratio” value [10] was “increased”, the “expression of PPARγ (PPARγ-positive images)” value [11] was “expression of PPARγ was successfully observed” and the “positive images obtained with HCS LipidTOX Green Neutral Lipid Stain (differentiation into fat cells)” value [12] was “increased in a zaltoprofen concentration-dependent manner”. For the same compound, the “caspase 3-positive cells” value [13] was “observed”, the “expression of PPARγ (PPARγ-positive cells)” value [14] was “increased in a zaltoprofen concentration-dependent manner” and the PPARγ-expressing cells [15] was “PPARγ-expressing cells were observed”. The “caspase 3-positive ratio” value [16] was “increased”, the Tunel-positive ratio [17] was “concentration and administration time-dependent increases” and the “expression of PPARγ (PPARγ-positive images)” value [18] was “expression of PPARγ was successfully observed”. For the same compound, the “caspase 3-positive ratio” value [19] was “increased”, the “cell proliferation (absorbance)” value [20] was “suppressed in a zaltoprofen or troglitazone concentration-dependent manner” and the MRI imaging effect ([21]; after three months) was “attenuation of the MRI imaging effect”. The “tumor size evaluated by MRI” value ([21]; after two months) was “shrinkage of tumor”, the “cell proliferation (absorbance)” value [22] was “suppressed in a zaltoprofen or troglitazone concentration-dependent manner” and the “cell proliferation (absorbance at 450 nm)” value ([1]; 5, 10, 50, 100, and 200 μM, 24 hours) was “concentration-dependent suppression of the cell proliferation”. For the same compound, the Tunel-positive ratio [23] was “increased”, the “positive images obtained with HCS LipidTOX Green Neutral Lipid Stain (differentiation into fat cells)” value [24] was “increased” and the “caspase 3-positive ratio” value [25] was “concentration and administration time-dependent increases”.
